In ChEMBL document CHEMBL1201862, “PubChem BioAssay data set” (2004):
Active and inactive are the calls of the source.

Columns and labels:
[1] = NIH-3T3 fibroblast cytotoxicity, dose response, cytotoxicity control, cell-based, fluorescence, Alamar Blue, secondary assay (AID 2327); assay type: functional;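 note: NIH-3T3 mouse fibroblasts cultured with fluconazole at 8 µg/mL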
[2] = fluconazole-exposed Candida albicans growth modulators – fluorescence, retest, confirmation (AID 2467); assay type: functional, cell-based
fMet-Leu-Phe receptor = target: T1, fMet-Leu-Phe receptor (Homo sapiens, UniProt P21462); experiment: formyl peptide receptor binders – dose response (AID 519); assay type: functional
T1 sequence (P21462 whole entry): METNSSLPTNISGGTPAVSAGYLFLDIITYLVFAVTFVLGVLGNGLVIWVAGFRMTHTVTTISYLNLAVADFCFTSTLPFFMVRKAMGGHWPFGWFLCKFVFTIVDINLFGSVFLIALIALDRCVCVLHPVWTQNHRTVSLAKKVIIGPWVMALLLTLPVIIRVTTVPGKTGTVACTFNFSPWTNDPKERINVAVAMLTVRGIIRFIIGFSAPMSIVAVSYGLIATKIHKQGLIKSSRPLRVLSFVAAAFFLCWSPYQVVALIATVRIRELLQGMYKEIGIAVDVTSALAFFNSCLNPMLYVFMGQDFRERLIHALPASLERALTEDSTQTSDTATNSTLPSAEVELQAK

Vero [3] = experiment: cells; assay type: functional, cell-based; conditions: Chlorocebus sabaeus
[4] = viability of uninfected HEp-2 cells – cell-based, HTS, cytotoxicity control for RSV inhibitor project, dose response (AID 2410); assay type: functional; conditions: human respiratory syncytial virus
[5] = target: SWI/SNF-related matrix-associated actin-dependent regulator of chromatin subfamily A member 2 (Homo sapiens, UniProt P51531); experiment: Luminescence-based cell-based high throughput dose response assay to identify activators of the function of SWI/SNF related, matrix associated, actin dependent regulator of chromatin, subfamily a, member 2 (SMARCA2, BRM).; assay type: functional
[6] = Counterscreen for activators of the function of SWI/SNF related, matrix associated, actin dependent regulator of chromatin, subfamily a, member 2 (SMARCA2, BRM): Luminescence-based cell-based high throughput dose response assay to identify non-selective compounds using the VP16 reporter assay.; assay type: functional
Cytochrome P450 2C19 = Cytochrome P450 2C19 (Homo sapiens, UniProt P33261); experiment: Cytochrome panel assay with activity outcomes. Panel member name: p450-cyp2c19 Compounds with AC50 equal or less than 10 uM are considered active; assay type: functional; conditions: read-out: AC50
[7] = target: Neurotensin receptor type 1 (Homo sapiens, UniProt P30989); assay type: functional;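 note: Image-based confirmatory dose-response assay measuring agonist activity at NTR1; NTR1-expressing U2OS osteosarcoma cells imaged for beta-arrestin GFP spot formation; agonist potency where compounds increase beta-arrestin recruitment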
[8] = target: Heat shock protein HSP 90-alpha (Homo sapiens, UniProt P07900); assay type: functional, organism-based
[9] = Fluorescence-based cell-based high throughput dose response assay for inhibitors of the interaction of nucleotide-binding oligomerization domain containing 2 (NOD2) and the receptor-interacting serine-threonine kinase 2 (RIPK2).; assay type: functional; conditions: Homo sapiens
[10] = target: T2, Low molecular weight phosphotyrosine protein phosphatase (Homo sapiens, UniProt P24666); assay type: functional; conditions: read-out: IC50_Mean
T2 sequence (P24666 whole entry): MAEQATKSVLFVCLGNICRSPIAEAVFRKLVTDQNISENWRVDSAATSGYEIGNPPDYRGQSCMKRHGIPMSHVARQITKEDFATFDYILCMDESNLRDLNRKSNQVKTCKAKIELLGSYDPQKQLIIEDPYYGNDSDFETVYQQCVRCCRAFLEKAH

[11] = target: T2, Low molecular weight phosphotyrosine protein phosphatase; assay type: functional; conditions: read-out: IC50_Mean; remark: listed apart in the source
HEK293 = experiment: EBV LMP1 TES2 canonical NF-kB signalling blockers – cell-based, HEK293, luciferase, cherry-pick, dose response (AID 588343); assay type: functional; conditions: Homo sapiens
Vero [12] = experiment: cells; assay type: functional; conditions: Chlorocebus sabaeus
[13] = blockers of HIV-1 envelope-mediated cell-cell fusion – cherry-pick, dose response (AID 652057); assay type: functional, cell-based
[14] = viability loss in CEM21 cells – cell-based, CellTiter-Glo luminescence, cherry-picked, cytotoxicity control for viral fusion inhibitor project, dose response (AID 652042); assay type: functional;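 note: potency for signal decrease meaning cytotoxicity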
[15] = blockers of HIV-1 ZM109 envelope-driven cell-cell fusion – HeLa effector, CEM target cells, luciferase, cherry-pick, dose response (AID 652058); assay type: functional, cell-based;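 note: luciferase signal from HIV-1 Env mediated cell-cell fusion of effector and target cells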
[16] = HIV-1 AD8 envelope cell-cell fusion blockers – cherry-pick, dose response (AID 652062); assay type: functional, cell-based;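 note: luciferase signal from cell-cell fusion driven by HIV-1 clade B AD8 Env; potency is for inhibitors of fusion seen as a drop in luminescence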
[17] = target: T3, Fructose-bisphosphate aldolase (Mycobacterium tuberculosis, UniProt P9WQA3); experiment: Fluorescence-based biochemical high throughput dose response assay for inhibitors of the fructose-bisphosphate aldolase (FBA) of M. tuberculosis.; assay type: functional
T3 sequence (P9WQA3 whole entry): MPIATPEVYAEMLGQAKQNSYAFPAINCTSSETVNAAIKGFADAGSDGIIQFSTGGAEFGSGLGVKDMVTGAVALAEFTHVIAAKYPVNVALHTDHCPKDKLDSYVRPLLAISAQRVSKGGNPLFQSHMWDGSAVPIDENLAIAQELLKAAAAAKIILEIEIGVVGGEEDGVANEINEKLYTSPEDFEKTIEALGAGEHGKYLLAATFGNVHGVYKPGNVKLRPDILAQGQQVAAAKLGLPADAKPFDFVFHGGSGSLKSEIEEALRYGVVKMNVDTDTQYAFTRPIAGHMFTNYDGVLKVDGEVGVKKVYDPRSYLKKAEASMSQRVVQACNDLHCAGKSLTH

Chain of SWI/SNF-related matrix-associated actin-dependent regulator of chromatin subfamily A member 2 (P51531 whole entry): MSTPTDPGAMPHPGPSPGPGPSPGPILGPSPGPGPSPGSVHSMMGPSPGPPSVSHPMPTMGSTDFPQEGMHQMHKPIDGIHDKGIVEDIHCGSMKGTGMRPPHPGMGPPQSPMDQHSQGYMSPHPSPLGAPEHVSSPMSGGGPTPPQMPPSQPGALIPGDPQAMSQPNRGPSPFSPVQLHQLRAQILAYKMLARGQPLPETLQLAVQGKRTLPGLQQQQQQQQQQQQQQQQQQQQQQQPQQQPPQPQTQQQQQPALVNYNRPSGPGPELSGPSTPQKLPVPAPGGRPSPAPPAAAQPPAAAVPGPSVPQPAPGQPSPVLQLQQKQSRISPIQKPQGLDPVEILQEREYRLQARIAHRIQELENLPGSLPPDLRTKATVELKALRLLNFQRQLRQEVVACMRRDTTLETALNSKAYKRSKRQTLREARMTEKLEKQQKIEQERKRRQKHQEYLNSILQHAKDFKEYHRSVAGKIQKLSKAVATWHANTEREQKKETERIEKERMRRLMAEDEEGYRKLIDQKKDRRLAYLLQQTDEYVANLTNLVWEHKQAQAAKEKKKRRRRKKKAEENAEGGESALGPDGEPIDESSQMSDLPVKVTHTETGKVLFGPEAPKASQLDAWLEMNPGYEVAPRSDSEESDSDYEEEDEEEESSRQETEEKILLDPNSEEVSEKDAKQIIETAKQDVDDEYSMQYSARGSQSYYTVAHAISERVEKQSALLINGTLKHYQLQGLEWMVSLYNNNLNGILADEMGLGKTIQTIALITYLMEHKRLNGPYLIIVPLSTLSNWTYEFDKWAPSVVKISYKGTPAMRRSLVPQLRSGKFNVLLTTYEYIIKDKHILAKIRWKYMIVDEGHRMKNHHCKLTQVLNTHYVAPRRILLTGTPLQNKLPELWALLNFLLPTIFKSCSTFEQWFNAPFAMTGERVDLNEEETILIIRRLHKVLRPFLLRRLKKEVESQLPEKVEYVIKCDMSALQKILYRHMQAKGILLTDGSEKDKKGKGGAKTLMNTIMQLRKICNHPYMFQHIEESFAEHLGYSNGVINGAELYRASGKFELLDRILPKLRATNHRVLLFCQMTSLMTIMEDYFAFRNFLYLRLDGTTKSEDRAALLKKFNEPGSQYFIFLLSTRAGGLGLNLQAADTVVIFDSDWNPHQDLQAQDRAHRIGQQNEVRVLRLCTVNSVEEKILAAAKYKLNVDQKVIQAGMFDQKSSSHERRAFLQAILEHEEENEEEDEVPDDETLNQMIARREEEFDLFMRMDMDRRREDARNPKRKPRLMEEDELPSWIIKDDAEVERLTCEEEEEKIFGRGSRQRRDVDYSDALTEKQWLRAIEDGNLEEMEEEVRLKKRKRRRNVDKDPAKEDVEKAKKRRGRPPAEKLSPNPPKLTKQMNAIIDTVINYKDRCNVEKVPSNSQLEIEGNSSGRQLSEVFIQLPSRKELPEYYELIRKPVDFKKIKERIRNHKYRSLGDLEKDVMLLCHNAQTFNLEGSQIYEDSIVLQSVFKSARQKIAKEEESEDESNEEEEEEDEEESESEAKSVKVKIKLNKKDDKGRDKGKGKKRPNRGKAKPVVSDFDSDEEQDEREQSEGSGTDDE
Chain of Cytochrome P450 2C19 (P33261 whole entry): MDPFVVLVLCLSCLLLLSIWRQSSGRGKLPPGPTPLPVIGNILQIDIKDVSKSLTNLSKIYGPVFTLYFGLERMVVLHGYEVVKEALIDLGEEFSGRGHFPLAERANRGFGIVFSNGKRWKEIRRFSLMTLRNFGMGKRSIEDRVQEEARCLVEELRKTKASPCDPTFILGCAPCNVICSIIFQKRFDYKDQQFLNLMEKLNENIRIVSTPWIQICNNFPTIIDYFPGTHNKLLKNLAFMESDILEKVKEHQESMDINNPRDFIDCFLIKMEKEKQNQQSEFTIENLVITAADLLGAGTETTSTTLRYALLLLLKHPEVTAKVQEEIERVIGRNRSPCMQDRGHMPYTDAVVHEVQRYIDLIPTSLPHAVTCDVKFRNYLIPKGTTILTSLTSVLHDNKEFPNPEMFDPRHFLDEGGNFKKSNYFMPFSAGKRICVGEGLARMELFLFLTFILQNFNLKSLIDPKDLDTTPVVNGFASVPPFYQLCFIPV
Chain of Neurotensin receptor type 1 (P30989 whole entry): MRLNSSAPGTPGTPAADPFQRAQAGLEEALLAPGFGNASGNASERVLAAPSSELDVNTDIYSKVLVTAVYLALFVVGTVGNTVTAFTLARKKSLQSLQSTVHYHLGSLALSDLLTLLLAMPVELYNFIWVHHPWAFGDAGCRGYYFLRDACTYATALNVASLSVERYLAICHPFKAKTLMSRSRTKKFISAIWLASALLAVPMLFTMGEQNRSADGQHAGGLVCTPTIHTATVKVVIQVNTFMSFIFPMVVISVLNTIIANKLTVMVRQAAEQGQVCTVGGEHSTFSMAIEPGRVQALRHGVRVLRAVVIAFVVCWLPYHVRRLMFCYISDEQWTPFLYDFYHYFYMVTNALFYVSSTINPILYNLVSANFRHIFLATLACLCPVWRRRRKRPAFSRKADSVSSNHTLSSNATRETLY

With `COCCN1C(=O)C(O)=C(C(=O)c2ccco2)C1c1cccc(Oc2ccccc2)c1` (stereo not drawn) the EC50 [1] was > 150 µM (inactive), the EC50 [2] was 4.35 µM (active) and the Ki (fMet-Leu-Phe receptor) was 56 µM (inactive).
For `Cc1ccc(NC(=O)NCc2ccc3[nH]c(C)cc3c2)cc1`, the IC50 (Vero [3]) was > 25 µM (active).
In the case of `Cc1cccc(C(=O)Nc2ccccc2SCC2CSc3nc4ccccc4c(=O)n32)c1` (stereo not drawn), the CC50 [4] is reported as 43 µM (active), the IC50 (Vero [3]) is reported as > 25 µM (active) and the IC50 (cells) is reported as 19.9 µM (active).
For `COc1ccccc1/C=C/C(=O)OCC(=O)Nc1ccc(Cl)cn1`, the EC50 [5] was > 91.1 µM (inactive) and the EC50 [6] was > 91.1 µM (inactive).
For `COc1ccc(C2C(C(=O)c3ccccc3)=C(O)C(=O)N2CC(C)O)c(OC)c1` (stereo not drawn), the AC50 (Cytochrome P450 2C19) was 6.31 µM (inconclusive) and the Ki (fMet-Leu-Phe receptor) was 38.6 µM (inactive).
With `COc1ccc(C(C[N+](=O)[O-])n2nc(C)cc2C)cc1` (stereo not drawn) the EC50 [7] was 10.1 µM (active), the AC50 [8] was 1.94 µM (active) and the IC50 [9] was 1.63 µM (active).
In the case of `Cc1c(-c2ccccc2)c(-c2ccc(OCCN(C)C)cc2)n2ccccc12`, the IC50 [10] is reported as 31.3 µM (inactive) and the IC50 [11] is reported as 4.82 µM (active).
For `CC1CC(C)C(=O)C(C(CC2CC(=O)NC(=O)C2)OC(=O)CC(=O)c2ccccc2)C1` (stereo not drawn), the AC50 (HEK293) was 42.3 µM (active), the IC50 (Vero [3]) was > 25 µM (active) and the CC50 (Vero [12]) was 9.24 µM (active).
For `CNc1nc(NC)c2c[nH]nc2n1`, the IC50 [10] was 33 µM (inactive) and the IC50 [11] was 9.16 µM (active).
In the case of `O=C(CNCc1c(F)cccc1F)N1CCC2(CC1)OCCO2`, the EC50 [5] is reported as > 91.3 µM (inactive) and the EC50 [6] is reported as > 91.3 µM (inactive).
In the case of `COc1cccc(S(=O)(=O)N(C)C[C@H]2Oc3cc(C4=CCCC4)ccc3S(=O)(=O)N([C@@H](C)CO)C[C@H]2C)c1`, the AC50 [13] is reported as 1.87 µM (active), the AC50 [14] is reported as 64.2 µM (active) and the AC50 [15] is reported as 1.62 µM (active). For the same molecule, the AC50 [16] was 3.01 µM (active).
For `COc1ccc2c(CN3CCCC3)cc(=O)oc2c1`, the IC50 [17] was 2.52 µM (active).
